Here are results for six compounds from ChEMBL document CHEMBL1130820, “Search for alpha 1-adrenoceptor subtypes selective antagonists: design, synthesis and biological activity of cystazosin, an alpha 1D-adrenoceptor antagonist” (Bioorg Med Chem Lett, 1998).

SMILES strings stand for the structures. Bounds are passed on as bounds.

The target in one test is D(2) dopamine receptor (Rattus norvegicus, UniProt P61169). The experiment in a line: Antagonistic affinity against rat striatum Dopamine receptor D2. Format: functional, tissue-based.
Sequence of D(2) dopamine receptor (P61169 whole entry): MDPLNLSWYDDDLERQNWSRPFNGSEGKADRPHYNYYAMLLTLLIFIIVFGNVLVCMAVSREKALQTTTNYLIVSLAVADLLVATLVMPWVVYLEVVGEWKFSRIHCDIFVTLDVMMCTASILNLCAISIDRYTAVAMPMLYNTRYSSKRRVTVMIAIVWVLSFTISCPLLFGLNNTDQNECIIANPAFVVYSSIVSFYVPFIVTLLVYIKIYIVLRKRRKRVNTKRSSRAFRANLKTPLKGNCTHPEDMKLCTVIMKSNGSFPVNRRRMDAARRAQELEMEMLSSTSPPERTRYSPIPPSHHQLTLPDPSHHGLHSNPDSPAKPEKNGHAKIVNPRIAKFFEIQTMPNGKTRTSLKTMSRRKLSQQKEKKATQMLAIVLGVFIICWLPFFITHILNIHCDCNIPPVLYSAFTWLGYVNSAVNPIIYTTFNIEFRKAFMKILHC
The target of test [1] is T1, Alpha-1D adrenergic receptor (Rattus norvegicus, UniProt P23944).
T1 sequence (P23944 whole entry): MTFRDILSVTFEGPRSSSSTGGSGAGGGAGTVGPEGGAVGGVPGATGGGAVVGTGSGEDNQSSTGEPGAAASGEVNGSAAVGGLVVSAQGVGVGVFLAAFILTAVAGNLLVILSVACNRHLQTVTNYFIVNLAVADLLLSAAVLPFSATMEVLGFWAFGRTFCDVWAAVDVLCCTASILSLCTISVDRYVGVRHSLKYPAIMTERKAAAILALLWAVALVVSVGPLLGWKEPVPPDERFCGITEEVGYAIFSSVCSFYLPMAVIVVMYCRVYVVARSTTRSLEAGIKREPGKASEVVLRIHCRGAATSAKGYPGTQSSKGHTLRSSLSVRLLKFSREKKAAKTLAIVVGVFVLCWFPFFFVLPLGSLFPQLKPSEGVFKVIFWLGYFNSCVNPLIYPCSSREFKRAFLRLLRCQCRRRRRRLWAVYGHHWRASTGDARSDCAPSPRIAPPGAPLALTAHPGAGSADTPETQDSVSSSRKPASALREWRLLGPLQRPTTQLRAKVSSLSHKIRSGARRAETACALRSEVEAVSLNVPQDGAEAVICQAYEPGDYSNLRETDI
The experiment in a line: Antagonistic affinity against Alpha-1D adrenergic receptor was determined in isolated thoracic aorta from rat. It counts as functional, tissue-based. To be noted: read-out: pA2 (converted).

The target of test [2] is T2, Alpha-1A adrenergic receptor (Rattus norvegicus, UniProt P43140).
T2 sequence (P43140 whole entry): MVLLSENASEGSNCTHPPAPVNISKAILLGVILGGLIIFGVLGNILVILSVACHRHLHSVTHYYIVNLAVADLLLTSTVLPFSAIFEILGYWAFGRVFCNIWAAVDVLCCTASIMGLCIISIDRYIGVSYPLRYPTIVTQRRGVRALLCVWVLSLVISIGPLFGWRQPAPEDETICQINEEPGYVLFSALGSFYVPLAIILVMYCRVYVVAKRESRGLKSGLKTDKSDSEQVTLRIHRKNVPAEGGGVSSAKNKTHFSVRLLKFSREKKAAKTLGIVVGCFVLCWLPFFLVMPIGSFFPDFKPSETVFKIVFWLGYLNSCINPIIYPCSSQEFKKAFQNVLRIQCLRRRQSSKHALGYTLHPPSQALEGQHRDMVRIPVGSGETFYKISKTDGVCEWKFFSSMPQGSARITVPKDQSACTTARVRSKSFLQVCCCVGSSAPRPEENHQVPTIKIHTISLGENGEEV
The experiment in a line: Antagonistic affinity against Alpha-1A adrenergic receptor was determined in isolated prostatic vas deferens tissue from rat. Format: functional, tissue-based. The following applies: read-out: pA2 (converted).

Test [3] deals with T3, Alpha-1B adrenergic receptor (Rattus norvegicus, UniProt P15823).
T3 sequence (P15823 whole entry): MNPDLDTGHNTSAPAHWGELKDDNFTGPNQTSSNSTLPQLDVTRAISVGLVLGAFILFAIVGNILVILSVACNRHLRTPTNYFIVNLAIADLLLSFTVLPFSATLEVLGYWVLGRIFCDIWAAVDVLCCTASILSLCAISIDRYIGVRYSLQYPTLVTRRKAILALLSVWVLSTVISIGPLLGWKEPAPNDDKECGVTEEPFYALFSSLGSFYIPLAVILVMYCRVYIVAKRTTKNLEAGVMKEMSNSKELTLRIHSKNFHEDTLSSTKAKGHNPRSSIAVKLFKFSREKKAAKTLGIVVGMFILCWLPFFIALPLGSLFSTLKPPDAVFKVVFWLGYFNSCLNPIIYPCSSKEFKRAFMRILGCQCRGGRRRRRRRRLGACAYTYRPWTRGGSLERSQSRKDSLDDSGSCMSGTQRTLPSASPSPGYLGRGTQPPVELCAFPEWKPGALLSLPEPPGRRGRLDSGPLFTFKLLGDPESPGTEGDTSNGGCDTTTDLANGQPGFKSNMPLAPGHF
Put plainly: Antagonistic affinity against Alpha-1B adrenergic receptor was determined in isolated spleen tissue from rat. To be noted: read-out: pA2 (converted). Format: functional, tissue-based.

In test [4] the target is T4, 5-hydroxytryptamine receptor 1A (Homo sapiens, UniProt P08908).
T4 sequence (P08908 whole entry): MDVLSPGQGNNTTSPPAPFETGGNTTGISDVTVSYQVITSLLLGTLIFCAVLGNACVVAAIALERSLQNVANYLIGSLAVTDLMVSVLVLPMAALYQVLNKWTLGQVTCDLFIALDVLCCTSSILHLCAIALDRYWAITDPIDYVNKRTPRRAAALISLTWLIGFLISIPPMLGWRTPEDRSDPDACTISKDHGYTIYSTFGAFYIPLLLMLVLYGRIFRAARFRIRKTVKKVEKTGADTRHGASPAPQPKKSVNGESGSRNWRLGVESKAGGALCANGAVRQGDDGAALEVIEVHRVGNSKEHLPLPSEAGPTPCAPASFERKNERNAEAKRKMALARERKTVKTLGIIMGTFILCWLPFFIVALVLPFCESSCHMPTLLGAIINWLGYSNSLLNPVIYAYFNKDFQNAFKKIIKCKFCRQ
Put plainly: Antagonistic affinity against cloned human 5-hydroxytryptamine 1A receptor. Format: functional.

The target in test [5] is T5, Adrenergic receptor alpha-2 (Rattus norvegicus, UniProt P22086+P19328+P22909).
T5 sequence (P22086 whole entry): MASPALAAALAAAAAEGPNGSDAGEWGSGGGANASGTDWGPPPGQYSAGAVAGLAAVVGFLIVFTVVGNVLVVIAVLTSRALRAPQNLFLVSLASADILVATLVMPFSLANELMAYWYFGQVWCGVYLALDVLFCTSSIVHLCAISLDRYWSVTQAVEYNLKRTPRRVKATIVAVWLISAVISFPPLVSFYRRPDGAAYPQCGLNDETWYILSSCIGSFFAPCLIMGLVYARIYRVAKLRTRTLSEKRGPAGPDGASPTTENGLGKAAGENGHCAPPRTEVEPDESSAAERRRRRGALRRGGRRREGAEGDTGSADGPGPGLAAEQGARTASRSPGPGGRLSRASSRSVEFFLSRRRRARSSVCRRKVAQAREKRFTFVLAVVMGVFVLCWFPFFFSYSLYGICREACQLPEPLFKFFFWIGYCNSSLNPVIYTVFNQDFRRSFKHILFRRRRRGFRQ
T5 sequence (P19328 whole entry): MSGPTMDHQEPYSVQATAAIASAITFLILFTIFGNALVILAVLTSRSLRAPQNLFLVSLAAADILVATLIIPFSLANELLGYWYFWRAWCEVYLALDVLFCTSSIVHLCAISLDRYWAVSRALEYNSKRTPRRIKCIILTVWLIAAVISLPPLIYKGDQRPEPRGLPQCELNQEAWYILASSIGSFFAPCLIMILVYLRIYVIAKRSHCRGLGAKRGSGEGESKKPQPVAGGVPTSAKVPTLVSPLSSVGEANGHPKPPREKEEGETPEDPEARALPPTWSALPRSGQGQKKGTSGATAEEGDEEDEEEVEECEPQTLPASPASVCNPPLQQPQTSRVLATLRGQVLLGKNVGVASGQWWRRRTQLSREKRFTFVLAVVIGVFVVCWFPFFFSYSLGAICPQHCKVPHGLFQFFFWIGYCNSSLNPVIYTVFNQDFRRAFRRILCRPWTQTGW
T5 sequence (P22909 whole entry): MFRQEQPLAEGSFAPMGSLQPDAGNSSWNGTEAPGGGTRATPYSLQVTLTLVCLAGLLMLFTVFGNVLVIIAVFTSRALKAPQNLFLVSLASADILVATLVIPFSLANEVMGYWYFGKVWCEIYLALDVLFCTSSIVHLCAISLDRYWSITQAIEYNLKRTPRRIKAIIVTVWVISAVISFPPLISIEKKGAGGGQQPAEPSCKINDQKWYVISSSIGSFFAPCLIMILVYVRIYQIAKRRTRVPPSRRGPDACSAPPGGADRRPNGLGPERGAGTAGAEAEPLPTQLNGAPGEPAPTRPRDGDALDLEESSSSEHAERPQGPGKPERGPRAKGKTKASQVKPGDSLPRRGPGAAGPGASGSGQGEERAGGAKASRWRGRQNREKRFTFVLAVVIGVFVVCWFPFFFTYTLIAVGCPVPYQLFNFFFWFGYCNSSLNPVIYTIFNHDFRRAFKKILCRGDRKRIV
Put plainly: Antagonistic affinity against native rat cortex Alpha-2 adrenergic receptor. Format: functional, tissue-based.

`COc1cc2nc(N3CCN(C(=O)c4ccco4)CC3)nc(N)c2cc1OC` [PRAZOSIN] had a Ki at D(2) dopamine receptor above 10000 nM.
As to `COc1cc2nc(NCCSSCCNC(=O)c3ccco3)nc(N)c2cc1OC`, the Kb in test [1] is 45.7 nM; in test [2], 1780 nM; in test [3], 115 nM.
As for `COc1cc2nc(N3CCN(C(=O)c4ccco4)[C@H]4CCCC[C@H]43)nc(N)c2cc1OC` [CYCLAZOSIN], the Ki in test [4] is above 1000 nM; on D(2) dopamine receptor, 8320 nM. In addition, the “Log Ki” value in test [5] is recorded as -6.13. Further, in test [2], the Kb is 33.1 nM.
`COc1cc2nc(N(C)CCSSCCN(C)C(=O)c3ccco3)nc(N)c2cc1OC` showed a Ki in test [4] above 1000 nM. The figures for the Kb in test [1], in test [2] and in test [3] were 2.88 nM, 29.5 nM and 32.4 nM, respectively. In test [5], the “Log Ki” value was -6.23.
In the case of `COc1ccccc1N1CCN(CCN2C(=O)CC3(CCCC3)CC2=O)CC1.Cl.Cl`, the inhibition constant (Ki) in test [4] is 1.74 nM; on D(2) dopamine receptor, 47.9 nM. The “Log Ki” value in test [5] is -5.98. Also, the Kb in test [3] was 28.2 nM.
Turning to `COc1cc2nc(N(C)CCCCCCN(C)C(=O)c3ccco3)nc(N)c2cc1OC`, the Ki was above 1000 nM in test [4] and 2340 nM on D(2) dopamine receptor. Moreover, the figures for the Kb in test [1], in test [2] and in test [3] were 0.646 nM, 0.912 nM and 0.145 nM, respectively. Besides, the “Log Ki” value in test [5] was -7.
